In patent US10647720B2 (Asana Biosciences, LLC, priority 2011, dated 2020):
Each block holds one molecule with its values, some of them ahead of it.

Key:
[1] = system: Collagen Induced Arthritis (CIA) in female Lewis rats; experiment: In vivo chronic study: Collagen Induced Arthritis (CIA); parameters: species or system rat; details: 0.5 mg/Kg
Protocol: Female Lewis rats (8 per group, 6-8 weeks old) were immunized on day 1 with type II collagen (Immunization grade Bovine type II; Chondrex; Cat #20021) emulsified with Complete Freund's Adjuvant (Sigma; Cat # F5881) at a final concentration of 1.2 mg/mL). For the initial immunization, the animals were injected at the base of the tail with 300 μg of the cII (0.25 mL/rat). A booster injection of the same type II collagen emulsified with Incomplete Freund's Adjuvant (Sigma, Cat #F5506) (0.25 mL/rat) was given to the animals on day 8 at the base of the tail (100 μg). The final cII concentration in the booster was […]. […]
Edema: Paw volumes are measured by Plethysmometry for the animals before induction of CIA (Basal readings) and on Day 1, 3, 6 and 9 of dosing period. Both hind paw volumes were measured and edema was calculated by subtracting from the basal mean.
Arthritic score: Animals were scored for the symptoms of arthritis every day starting from Day of onset of disease till the end of the study. Both the hind paws were scored and the total scores were averaged and compared with control. […]
The percent inhibition of Edema was calculated with respect to control by the formula: […]
The percent inhibition of Arthritic score was calculated with respect to control by the formula: […]

JAK2 = JAK2 (Homo sapiens (Human), UniProt O60674); experiment: Inhibition of enzymatic JAK2 kinase activity (TR-FRET); format: biochemical
Text: The objective of this assay was to screen compounds in a Time-resolved fluorescence resonance energy transfer (TR-FRET) Enzymatic assay method for their potential to inhibit JAK2 (Janus kinase) activity.
TR-FRET assays are homogeneous proximity assays where Eu-labeled antiphosphotyrosine antibody binds to the phosphorylated substrates labeled with Ulight fluorescence acceptor. Eu can transfer energy to Ulight accepter in the complex and the interaction of two dye-labeled binding partners is detected by the energy transfer between a donor and an acceptor dye, and the subsequent light emission by the acceptor dye. The intensity of the light emission is proportional to the level of Ulight peptide phosphorylation.
Two μL of 10% DMSO in blank, substrate control and positive control wells and 2 μL of test compound in test wells was added. Thirteen μL of assay buffer in blank and substrate control wells and 13 μL of Enzyme buffer mix in positive and test wells was added. The reaction mixture was incubated for 30 minutes at RT on a plate shaker. […] The reaction plate was incubated for 60 minutes at RT on a plate shaker. The reaction was stopped by adding 40 mM EDTA (10 μL) in buffer. Ten μL of antibody was added to all the wells. The plate was read in a Wallac® 1420 Multilabel Counter Victor 3 instrument (Ex: 340 nm Em: 615 & 665 nm) The following calculations were made:
F@ 665 Value-Buffer blank […]

[2] = target: Syk (356-635 amino acids)-catalytic domain (Homo sapiens (Human), UniProt P43405); experiment: Inhibition of enzymatic Syk kinase activity (radiometric); format: biochemical
Text: The objective of this assay was to examine by radiometric method the ability of compounds to inhibit Syk kinase enzyme. Syk is capable of phosphorylating substrates such as VAV, LAT, SLP-76, which in turn activate MAPK, PLCγ signaling pathways. […] This in vitro assay tests the ability of syk to phosphorylate a substrate peptide in the presence of ATP. By using a radio-labeled form of ATP, it is possible to measure the amount of phosphorylation of the substrate. The enzyme transfers a radio-labeled phosphate group from γ32 P labeled ATP to pG4T. Briefly the enzyme was incubated with substrate, radio-labeled & cold ATP and substrate in buffer with or without compounds. At the end of the reaction, the reaction mixture was transferred on to a Multiscreen filter plate and unreacted γ^32P ATP was washed off. The filter plate was dried and the radioactivity was measured on a scintillation counter to estimate the incorporated radioactivity on the substrate. The percent inhibition of activity of the enzyme was calculated by comparing counts in the presence and absence of compounds. […] Microscint-O® reagent (100 μL, Perkin Elmer) was added to each well, the plate was sealed with Topseal®-A microplates and incubated for 10 minutes at room temperature at very low speed on rocker and the plate was read in the Topcount® NXL instrument.

RBL2H3 cells = experiment: Degranulation assay: β-hexosaminidase release during immune complex mediated degranulation; format: cell-based, Rat
Protocol: The objective of this assay was to examine by Fluorescence method the effect of compounds on β-hexosaminidase release during immune complex mediated degranulation in RBL2H3 cells. Compounds were tested for their ability to inhibit the ability of this immune complex to mediate β-hexosaminidase release, in an enzyme assay with p-nitrophenyl-β-D-glucosaminide as substrate. […] Emission 460 nm). RBL2H3 cells were maintained in MEM complete media containing 10% FBS at 70%-80% confluence in a mammalian cell culture CO2 incubator with 5% CO2 at 37° C. 2×10^5 cells/well were plated in 1 mL of complete media and incubated for 5 hours for cell attachment. Complete media was replaced with 1 mL of serum free MEM media containing 1.2 μg/mL of anti-DNP rat IgE as sensitizing agent and further incubated overnight with 5% CO2 at 37° C. […] Cells were further stimulated with 5 μg/mL of DNP-BSA for 60 minutes. Plates were centrifuged for 5 minutes at 1000 rpm and 25 μL of culture supernatant was transferred from each assay well into a 96 well black coated plate. 25 μL β-NAG substrate was added to this mixture and incubated at room temperature for 30 minutes. The reaction was terminated with 100 μL of stop solution and fluorescence was monitored. (Excitation 355 nm; Emission 460 nm) See, Sanderson, (2010), Cellular Immunology, 262(1): 28-34 and Silverman, (2006) MCB, 26(5):1826-1838, which are incorporated herein by reference. The % release of β-Hexosaminidase for the test compound was calculated using the following formula: RBL2H3 cells were maintained in MEM complete media containing 10% FBS at 70-80% confluence in a mammalian cell culture CO2 incubator with 5% CO2 at 37° C. 5×10^4 cells/well were plated in 200 μL of complete media containing 0.3 μg/mL of anti-DNP rat IgE as sensitizing agent for 24 hours at 37° C. & 5% CO2. The following day, cells were washed twice with PIPES buffer for 10 minutes at 37° C. and replenished with serum free MEM media. […] After incubation with substrate, 150 μL of stop solution was added and fluorescence was monitored. […]

Chain of JAK2 (O60674 808-1132): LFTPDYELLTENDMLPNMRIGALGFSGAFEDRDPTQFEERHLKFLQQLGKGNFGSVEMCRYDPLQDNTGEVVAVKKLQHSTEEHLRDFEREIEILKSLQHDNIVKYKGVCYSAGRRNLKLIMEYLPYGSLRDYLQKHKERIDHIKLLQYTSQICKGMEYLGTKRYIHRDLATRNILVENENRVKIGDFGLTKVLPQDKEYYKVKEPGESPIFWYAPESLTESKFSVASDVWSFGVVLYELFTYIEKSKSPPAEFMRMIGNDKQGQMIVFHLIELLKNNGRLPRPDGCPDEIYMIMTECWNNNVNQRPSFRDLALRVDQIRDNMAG

Structure (SMILES): CN(Cc1cnc2nc(N)nc(N)c2n1)c1ccc(C(=O)N[C@@H](CCC(=O)O)C(=O)O)cc1 [Methotrexate, methotrexate]
Percent inhibition of Edema (Day 9 of dosing) ([1]; Day 9 of dosing): 6%
Percent inhibition of Arthritic score (Day 10 of dosing) ([1]; Day 10 of dosing): 15%

IC50 (JAK2): < 10 nM
IC50 [2]: < 10 nM
EC50 (RBL2H3 cells; Rattus norvegicus, RBL-2H3, Assay Protocol B (96 well format)): 21 nM
Structure (SMILES): O=c1[nH]ncc2nc(N3CCCCCC3)nc(Nc3ccc(N4CCN(CCO)CC4)cc3)c12 [Example 190, 2-(azepan-1-yl)-4-((4-(4-(2-hydroxyethyl)piperazin-1-yl)-phenyl)amino)pyrimido[4,5-d]-pyridazin-5(6H)-one]
inhibition at 1 µM (RBL2H3 cells; Rattus norvegicus, RBL-2H3, 1 μM, Assay Protocol B (96 well format)): 83%

Structure (SMILES): N=Cc1nc(N2CCCCCC2)nc(Nc2ccc(N3CCCC(CC(=O)O)C3)cc2)c1C(N)=O (stereo not shown) [Example 232]
Degranulation % inhibition at 1 μM (RBL2H3 cells; 1 μM, Assay Protocol B (96 well format)): 0%
